Source: ChEMBL document CHEMBL1255450, “Detection of E119V and E119I mutations in influenza A (H3N2) viruses isolated from an immunocompromised patient: challenges in diagnosis of oseltamivir resistance” (Antimicrob Agents Chemother, 2010)

Columns and labels:
Assay type in all cases: functional, organism-based, Influenza A virus (A/Texas/12/2007(H3N2))
Conditions in all cases: mdck
[1] = tested on: Influenza A virus
[2] = tested on: Influenza A virus; remark: listed apart in the source
[3] = tested on: Influenza A virus; remark: listed apart in the source
[4] = tested on: Influenza A virus; remark: listed apart in the source
[5] = tested on: Influenza A virus; remark: listed apart in the source
[6] = tested on: Influenza A virus; remark: listed apart in the source
[7] = tested on: Influenza A virus; remark: listed apart in the source

SMILES | IC50 [1] [nM] | IC50 [2] [nM] | IC50 [3] [nM] | IC50 [4] [nM] | IC50 ([5]; read-out: IC50) [nM] | IC50 [6] [nM] | IC50 [5] [nM] | IC50 [7] [nM]
C/C=C\[C@@H]1C[C@H](C(=O)O)N[C@H]1[C@@H](NC(C)=O)[C@](C)(CCC)OC | 1.25 | 4.96 | 5.45 | 1.35 | 3 | 23.9 | – | –
CCOC(=O)C1=C[C@@H](OC(CC)CC)[C@H](NC(C)=O)[C@@H](N)C1 [OSELTAMIVIR] | 5.49 | 33.2 | 246 | 8.06 | – | 431 | 154 | 9.18
CCC(CC)[C@H](NC(C)=O)[C@@H]1[C@H](O)[C@@H](C(=O)O)C[C@H]1NC(=N)N [PERAMIVIR ANHYDROUS] | 0.43 | 0.9 | 1.47 | 0.51 | 33.6 | 214 | – | –
CC(=O)N[C@H]1[C@H]([C@H](O)[C@H](O)CO)OC(C(=O)O)=C[C@@H]1NC(=N)N [ZANAMIVIR] | – | 12.7 | – | 1.54 | 3.8 | 18.6 | – | –
